Results on six compounds are retold here after patent US20060128769A1, “Thiazoyl biphenyl amides” (priority 2002, published 2006).

Read-outs that look alike come from different tables or passages of the source.

One series deals with Venturia inaequalis. The series can be described thus: Venturia test (apple)/protective. As to conditions: 240 h, protective, application rate 100 g/ha, evaluation 10 days after inoculation, read-out: % efficacy. It counts as in vivo. Here is the method:
(§1) • Solvents: 24.5 parts by weight of acetone 24.5 parts by weight of dimethylacetamide • Emulsifier: 1.0 part by weight of alkylaryl polyglycol ether
(§2) To produce a suitable preparation of active compound, 1 part by weight of active compound is mixed with the stated amounts of solvents and emulsifier, and the concentrate is diluted with water to the desired concentration.
To test for protective activity, young plants are sprayed with the preparation of active compound at the stated application rate. After the spray coating has dried on, the plants are inoculated with an aqueous conidia suspension of the apple scab pathogen Venturia inaequalis and then remain in an incubation cabin at about 20° C. and 100% relative atmospheric humidity for one day.
The plants are then placed in a greenhouse at about 21° C. and a relative atmospheric humidity of about 90%.
Evaluation is carried out 10 days after the inoculation. 0% means an efficacy which corresponds to that of the control, whereas an efficacy of 100% means that no infection is observed.

Series [1] is described as follows: logP determination by HPLC on a reversed-phase column (C 18), EEC Directive 79/831 Annex V.A8. In kind it is physicochemical. As to conditions: reversed-phase HPLC column (C 18). Here is the method: The logP values given in the preparation examples and tables above are determined in accordance with EEC Directive 79/831 Annex V.A8 by HPLC (High Performance Liquid Chromatography) using a reversed-phase column (C 18). Temperature: 43° C. The determination is carried out in the acidic range at pH 2.3 using the mobile phases 0.1% aqueous phosphoric acid and acetonitrile; linear gradient from 10% acetonitrile to 90% acetonitrile. Calibration is carried out using unbranched alkan-2-ones (having 3 to 16 carbon atoms) with known logP values (determination of the logP values by the retention times using linear interpolation between two successive alkanones).

The next series relates to Botrytis cinerea. The series is described as follows: Botrytis test (bean)/protective. It counts as in vivo. As to conditions: 48 h, protective, application rate 500 g/ha, evaluation 2 days after inoculation, read-out: % efficacy. Here is the method:
as §1, §2
To test for protective activity, young plants are sprayed with the preparation of active compound at the stated application rate. After the spray coating has dried on, 2 small pieces of agar colonized by Botrytis cinerea are placed onto each leaf. The inoculated plants are placed in a dark chamber at about 20° C. and 100% relative atmospheric humidity.
2 days after the inoculation, the size of the infected areas on leaves is evaluated. 0% means an efficacy which corresponds to that of the control, whereas an efficacy of 100% means that no infection is observed.

For a further series, the system named is Sphaerotheca fuliginea. The series is described as follows: Sphaerotheca test (cucumber)/protective. In kind it is in vivo. As to conditions: Podosphaera fuliginea, 168 h, protective, application rate 100 g/ha, evaluation 7 days after inoculation, read-out: % efficacy. The procedure:
• Solvents: 24.5 parts by weight of acetone 24.5 parts by weight of dimethylacetamide • Emulsifier: 1 part by weight of alkylaryl polyglycol ether
as §2
To test for protective activity, young plants are sprayed with the preparation of active compound at the stated application rate. After the spray coating has dried on, the plants are inoculated with an aqueous spore suspension of Sphaerotheca fuliginea. The plants are then placed in a greenhouse at about 23° C. and a relative atmospheric humidity of about 70%.
Evaluation is carried out 7 days after the inoculation. 0% means an efficacy which corresponds to that of the control, whereas an efficacy of 100% means that no infection is observed.

The subject of the next series is Alternaria solani. The series can be described thus: Alternaria test (tomato)/protective. It counts as in vivo. As to conditions: 168 h, protective, application rate 750 g/ha, evaluation 7 days after inoculation, read-out: % efficacy. The procedure:
• Solvent: 49 parts by weight of N,N-dimethylformaide • Emulsifier: 1 part by weight of alkylaryl polyglycol ether To produce a suitable preparation of active compound, 1 part by weight of active compound is mixed with the stated amounts of solvent and emulsifier, and the concentrate is diluted with water to the desired concentration. To test for protective activity, young tomato plants are sprayed with the preparation of active compound at the stated application rate. 1 day after the treatment, the plants are inoculated with an aqueous spore suspension of Alternaria solani and then remain at 100% relative humidity for 24 hours. The plants then remain at about 96% relative atmospheric humidity and a temperature of 20° C. Evaluation is carried out 7 days after the inoculation. 0% means an efficacy which corresponds to that of the control, whereas an efficacy of 100% means that no infection is observed.

Setting [2] is: pH 2.3, HPLC reversed-phase C 18, 43° C., 0.1% aqueous phosphoric acid/acetonitrile, read-out: logP (pH 2.3).
The mark [3] stands for this setting: Table 1, acidic range pH 2.3, HPLC reversed-phase C 18, 43° C., read-out: logP.

Turning to `CC(=O)N(C(=O)c1sc(C)nc1C(F)F)c1ccccc1-c1ccc(Br)cc1` [Example 1, N-acetyl-N-(4′-bromo-1,1′-biphenyl-2-yl)-4-(difluoromethyl)-2-methyl-1,3-thiazole-5-carboxamide], the Emax at 100 g/ha in the series on Venturia inaequalis and with Sphaerotheca fuliginea was 100% in each case. Moreover, the chromatographic logP in series [1] (setting [2]) was found to be 3.61. In the series on Botrytis cinerea, the Emax at 500 g/ha was found to be 98%.

As for `Cc1nc(C(F)F)c(C(=O)N(C)c2ccccc2-c2ccc(Cl)cc2)s1` [Example 2], the chromatographic logP in series [1] (setting [2]) was determined as 3.34. Moreover, the Emax at 100 g/ha in the series on Sphaerotheca fuliginea is 95%.

On to `Cc1nc(C(F)F)c(C(=O)N(C(=O)c2sc(C)nc2C(F)F)c2ccccc2-c2cc(Cl)cc(Cl)c2)s1` [Example 4], for which the Emax at 750 g/ha with Alternaria solani stood at 95%. Also, the results for the Emax at 100 g/ha in the series with Venturia inaequalis and in the series with Sphaerotheca fuliginea were 99% and 100%, respectively. Also, in series [1] (setting [3]), the chromatographic logP worked out at 4.28. Further, in the series with Botrytis cinerea, the Emax at 500 g/ha stood at 94%.

Consider `Cc1nc(C(F)F)c(C(=O)N(C)c2ccccc2-c2ccc(Br)cc2)s1` [Example 6], for which the chromatographic logP in series [1] (setting [3]) stood at 3.44. In the series with Sphaerotheca fuliginea, the Emax at 100 g/ha amounted to 100%.

The term melting point denotes the temperature, or range, at which the solid turns liquid. With `Cc1nc(C(F)F)c(C(=O)Nc2ccccc2-c2ccc(Br)cc2)s1` [II-1, N-(4′-bromo-1,1′-biphenyl-2-yl)-2-methyl-4-(difluoromethyl)-1,3-thiazole-5-carboxamide], the melting point was found to be 151 °C. Moreover, the chromatographic logP in series [1] (setting [2]) came out at 3.34.

In turn, `Cc1nc(C(F)F)c(C(=O)Nc2ccccc2-c2ccc(Cl)cc2)s1` [II-2, N-(4′-chloro-1,1′-biphenyl-2-yl)-2-methyl-4-(difluoromethyl)-1,3-thiazole-5-carboxamide] registered a melting point of 144 °C. Moreover, in series [1] (setting [2]), the chromatographic logP is 3.26.
